The subject of one experiment is Staphylococcus aureus. Nature of the experiment: In vitro Antibacterial activity of compound against Staphylococcus aureus Oxford. The format is functional.
For experiment [1], the target named is Methionine--tRNA ligase (Enterococcus faecalis (strain ATCC 700802 / V583)) (UniProt Q837B3). Put plainly: In vitro Antibacterial activity of compound against Enterococcus faecalis 7. The experiment is classed as functional.

Molecules are shown by their SMILES. Converted amounts (≈) assume the structure as drawn.

Chain of Methionine--tRNA ligase (Enterococcus faecalis (strain ATCC 700802 / V583)) (Q837B3 whole entry): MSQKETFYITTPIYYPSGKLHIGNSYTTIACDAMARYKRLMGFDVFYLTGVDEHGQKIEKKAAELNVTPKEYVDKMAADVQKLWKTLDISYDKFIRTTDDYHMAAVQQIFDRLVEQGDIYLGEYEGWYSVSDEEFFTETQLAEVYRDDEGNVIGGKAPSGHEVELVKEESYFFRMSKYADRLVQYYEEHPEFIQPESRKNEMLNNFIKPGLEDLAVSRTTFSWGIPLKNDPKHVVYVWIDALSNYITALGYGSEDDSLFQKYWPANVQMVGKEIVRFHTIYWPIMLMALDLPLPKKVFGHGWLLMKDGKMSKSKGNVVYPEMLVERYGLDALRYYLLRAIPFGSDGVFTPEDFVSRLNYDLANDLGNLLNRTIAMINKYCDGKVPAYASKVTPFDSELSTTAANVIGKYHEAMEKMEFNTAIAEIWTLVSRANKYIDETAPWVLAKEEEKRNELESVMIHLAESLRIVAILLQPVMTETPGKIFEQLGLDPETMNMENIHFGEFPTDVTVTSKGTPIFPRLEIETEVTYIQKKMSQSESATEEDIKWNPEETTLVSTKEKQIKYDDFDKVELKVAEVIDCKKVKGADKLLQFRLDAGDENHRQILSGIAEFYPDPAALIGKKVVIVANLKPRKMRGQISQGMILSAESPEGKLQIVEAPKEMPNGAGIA

For the molecule `Oc1cc(NCCCNCc2ccc(Cl)cc2Cl)nc2ccccc12`, the MIC (against Staphylococcus aureus; in experiment [1]) was 4 µg/mL (≈ 10.6 µM) throughout.
Turning to `Oc1cc(NCCCNCc2cc(Cl)cc(Cl)c2Cl)nc2ccccc12`, the MIC was 0.25 µg/mL (≈ 0.609 µM) in the experiment with Staphylococcus aureus and less than 0.06 µg/mL in experiment [1].
The matching figures for `CC(C)Oc1c(Cl)cc(Cl)cc1CNCCCNc1cc(O)c2ccccc2n1`: 2 µg/mL (≈ 4.6 µM) and 0.5 µg/mL (≈ 1.15 µM).
